pIC50: −log10 of the molar value.

25 compounds from patent publication US8987314B2, “Amide, urea or sulfone amide linked benzothiazole inhibitors of endothelial lipase” (Bristol-Myers Squibb Company, priority 2012, dated 2015) can be followed below.

One test has as its target Endothelial lipase (EL) (Homo sapiens (Human), UniProt Q9Y5X9). The test can be described thus: EL assay: endothelial lipase activity with fluorescent substrate A10070 in DMPG vesicles. The class given is biochemical. Summed up: (§1)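 EL from conditioned medium of HT-1080 cells engineered to overexpress endogenous EL; HL partially purified from conditioned medium of HL-overexpressing COS cells. Enzyme preincubated with compound 30 min at 37° C in 50 mM HEPES pH 8.0, 50 mM NaCl, 1 mM CaCl2; DMPG vesicles carrying FRET substrate (0.11 mole fraction) then added.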

A further test concerns the target hepatic lipase (HL) (Homo sapiens (Human), UniProt P11150). The test can be described thus: HL assay: hepatic lipase activity with fluorescent substrate A10070 in DMPG vesicles. The format is biochemical. Summed up:
as §1

Sequence of hepatic lipase (HL) (P11150 23-499, species assumed): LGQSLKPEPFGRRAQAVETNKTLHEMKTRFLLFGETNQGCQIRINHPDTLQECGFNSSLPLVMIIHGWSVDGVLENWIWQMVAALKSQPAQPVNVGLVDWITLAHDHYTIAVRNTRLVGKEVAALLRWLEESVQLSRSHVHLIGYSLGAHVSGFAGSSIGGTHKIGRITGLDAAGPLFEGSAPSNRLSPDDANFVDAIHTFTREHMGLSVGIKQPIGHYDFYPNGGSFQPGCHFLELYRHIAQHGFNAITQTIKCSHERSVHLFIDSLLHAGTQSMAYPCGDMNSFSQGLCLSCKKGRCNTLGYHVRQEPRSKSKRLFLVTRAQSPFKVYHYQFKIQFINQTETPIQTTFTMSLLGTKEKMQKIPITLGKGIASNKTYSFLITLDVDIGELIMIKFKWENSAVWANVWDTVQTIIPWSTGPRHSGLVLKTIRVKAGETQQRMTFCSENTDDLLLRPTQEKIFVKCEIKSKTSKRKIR
Sequence of Endothelial lipase (EL) (Q9Y5X9 21-500): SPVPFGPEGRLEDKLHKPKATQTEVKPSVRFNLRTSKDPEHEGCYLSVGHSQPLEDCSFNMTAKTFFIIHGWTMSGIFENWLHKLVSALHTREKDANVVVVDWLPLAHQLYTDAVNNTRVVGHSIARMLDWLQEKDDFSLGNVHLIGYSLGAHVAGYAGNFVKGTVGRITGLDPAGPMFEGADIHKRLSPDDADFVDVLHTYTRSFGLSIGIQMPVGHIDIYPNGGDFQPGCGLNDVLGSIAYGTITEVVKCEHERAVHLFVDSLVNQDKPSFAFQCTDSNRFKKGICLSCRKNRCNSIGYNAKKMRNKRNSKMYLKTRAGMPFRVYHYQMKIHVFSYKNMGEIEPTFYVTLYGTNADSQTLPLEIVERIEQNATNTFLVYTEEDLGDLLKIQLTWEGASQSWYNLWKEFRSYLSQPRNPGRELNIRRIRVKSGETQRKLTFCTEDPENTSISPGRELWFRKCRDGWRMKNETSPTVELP

With `NS(=O)(=O)CCNC(=O)C(c1nc2ccc(-c3cccc(C(=O)N4CCOCC4)c3)cc2s1)S(=O)(=O)CCC(F)(F)F` (centres unmarked) [Example B333, 2-{6-[3-(morpholine-4-carbonyl)phenyl]-1,3-benzothiazol-2-yl}-N-(2-sulfamoylethyl)-2-(3,3,3-trifluoropropanesulfon-yl)acetamide], the figures for the pIC50 on Endothelial lipase (EL) and at hepatic lipase (HL) were 8.01 and 6.92, respectively.
For the compound `NS(=O)(=O)CCNC(=O)C(c1nc2ccc(-c3cnn(CCN4CCOCC4)c3)cc2s1)S(=O)(=O)CCCC(F)(F)F` (centres unmarked) [Example B127, 2-(6-(1-(2-(4-morpholinyl)eth-yl)-1H-pyrazol-4-yl)-1,3-benzothiazol-2-yl)-N-(2-sulfamoylethyl)-2-((4,4,4-trifluorobutyl)sul-fonyl)acetamide], the pIC50 against Endothelial lipase (EL) is greater than 8.00; at hepatic lipase (HL), 6.03.
The corresponding values for `CC1(O)CN(C(=O)c2ccc(-c3ccc4nc(C(C(=O)NCCS(N)(=O)=O)S(=O)(=O)Cc5ccc(F)cc5)sc4c3)cc2)C1` (centres unmarked) [Example B353, 2-[(4-fluorophenyl)meth-anesulfonyl]-2-{6-[4-(3-hydroxy-3-methylazetidine-1-carbonyl)phcnyl]-1,3-benzothiazol-2-yl}-N-(2-sulfamoylethyl)acetamide] are 8.70 and 7.73.
The corresponding values for `COCCNC(=O)c1ccc(-c2cc3sc(C(C(=O)NCc4nnc(C)o4)S(=O)(=O)CCOC)nc3cc2F)cc1` (centres unmarked) [Example B258, 4-{5-fluoro-2-[(2-methoxy-ethanesulfonyl)({[(5-methyl-1,3,4-oxadiazol-2-yl)methyl]carbamoyl})meth-yl]-1,3-benzothiazol-6-yl}-N-(2-methoxyeth-yl)benzamide] are 7.24 and 6.05.
The corresponding values for `NS(=O)(=O)CCNC(=O)C(c1nc2ccc(-c3ccccc3F)cc2s1)S(=O)(=O)Cc1ccc(OC(F)(F)F)cc1` (centres unmarked) [Example B365, 2-[6-(2-fluorophenyl)-1,3-benzothiazol-2-yl]-N-(2-sulfamoylethyl)-2-{[4-(trifluoromethoxy)phen-yl]methanesulfonyl}a-cetamide] are 7.76 and 8.68.
Turning to `COCCNC(=O)c1ccc(-c2ccc3nc(C(C(=O)NCCS(N)(=O)=O)S(=O)(=O)Cc4ccc(OC(F)(F)F)cc4)sc3c2)cc1` (centres unmarked) [Example B282, N-(2-methoxyethyl)-4-(2-{[(2-sulfamoylethyl)car-bamoyl][4-(trifluoromethoxy)phen-yl]methanesulfonylmethyl}-1,3-benzothiazol-6-yl)ben-zamide], the negative logarithm of the IC50 (pIC50) was 8.59 against Endothelial lipase (EL) and 6.51 at hepatic lipase (HL).
On the same counts, the results for `Cc1nnc(-c2ccc(-c3ccc4nc(C(C(=O)NCCS(N)(=O)=O)S(C)(=O)=O)sc4c3)cc2)o1` (centres unmarked) [Example B225, 2-methanesulfonyl-2-{6-[4-(5-methyl-1,3,4-oxadiazol-2-yl)phenyl]-1,3-benzothiazol-2-yl}-N-(2-sulfamoylethyl)a-cetamide] are 8.31 and 7.81.
Consider `COCCN(C)C(=O)c1ccc(-c2ccc3nc(C(C(=O)NCCS(N)(=O)=O)S(=O)(=O)Cc4ccc(OC(F)(F)F)cc4)sc3c2)cc1` (centres unmarked) [Example B289, N-(2-methoxyethyl)-N-methyl-4-(2-{[(2-sulfamoyl-ethyl)carbamoyl][4-(trifluoromethoxy)phen-yl]methanesulfonyl-methyl}-1,3-benzothiazol-6-yl)benzamide], for which the pIC50 was 8.51 on Endothelial lipase (EL) and 7.66 against hepatic lipase (HL).
In the case of `COCCN(C)C(=O)c1ccc(-c2ccc3nc(C(C(=O)NCCS(N)(=O)=O)S(=O)(=O)CC4CC4)sc3c2)cc1F` (centres unmarked) [Example B247, 4-(2-{cyclopropylmethane-sulfonyl[(2-sulfamoyl-ethyl)carbamoyl]methyl}-1,3-benzothiazol-6-yl)-2-fluoro-N-(2-methoxy-ethyl)-N-methylbenzamide], the pIC50 is 8.21 at Endothelial lipase (EL) and 6.90 against hepatic lipase (HL).
As for `NS(=O)(=O)CCNC(=O)C(c1nc2ccc(-c3cncnc3)cc2s1)S(=O)(=O)CCN1CCOCC1` (centres unmarked) [Example B315, 2-[2-(morpholin-4-yl)ethanesulfonyl]-2-[6-(pyrimidin-5-yl)-1,3-benzothiazol-2-yl]-N-(2-sulfamoylethyl)acetamide], the pIC50 against Endothelial lipase (EL) is 7.25; on hepatic lipase (HL), 5.00.
With `CS(=O)(=O)C(C(=O)NCCS(N)(=O)=O)c1nc2cc(-c3ccnc(O)c3)ccc2s1` (centres unmarked) [Example B194, 2-(methylsulfonyl)-2-(5-(2-oxo-1,2-dihydro-4-pyridinyl)-1,3-benzothiazol-2-yl)-N-(2-sulfamoylethyl)acetamide], the pIC50 is 8.70 against Endothelial lipase (EL) and 7.02 at hepatic lipase (HL).
The corresponding values for `COCc1ccc(-c2ccc3nc(C(C(=O)NCCS(N)(=O)=O)S(=O)(=O)CC4CC4)sc3c2)cc1` (centres unmarked) [Example B286, 2-cyclopropylmethane-sulfonyl-2-{6-[4-(methoxymethyl)phenyl]-1,3-benzothiazol-2-yl}-N-(2-sulfamoylethyl)a-cetamide] are 8.41 and 7.26.
The corresponding values for `NS(=O)(=O)CCNC(=O)C(c1nc2cc(-c3ccc(F)nc3)ccc2s1)S(=O)(=O)CCC(F)(F)F` (centres unmarked) [Example B311, 2-[5-(6-fluoropyridin-3-yl)-1,3-benzothiazol-2-yl]-N-(2-sulfamoylethyl)-2-(3,3,3-trifluoropropane-sulfonyl)acetamide] are 8.51 and 7.62.
On the same counts, the results for `CS(=O)(=O)C(C(=O)NCCS(N)(=O)=O)c1nc2cc(-c3ccc(F)nc3)ccc2s1` (centres unmarked) [Example B372, 2-[5-(6-fluoropyridin-3-yl)-1,3-benzothiazol-2-yl]-2-methanesulfonyl-N-(2-sulfamoylethyl)acetamide] are 8.60 and 6.91.
Take `CS(=O)(=O)C(C(=O)NCCS(N)(=O)=O)c1nc2ccc(-c3ccc(CO)cc3)cc2s1` (centres unmarked) [Example B56, 2-(6-(4-(hydroxymethyl)phen-yl)-1,3-benzothiazol-2-yl)-2-(methylsulfonyl)-N-(2-sulfamoylethyl)a-cetamide]: the negative logarithm of the IC50 (pIC50) against Endothelial lipase (EL) is greater than 8.00; on hepatic lipase (HL), 6.91.
Regarding `COCCS(=O)(=O)C(C(=O)NCCS(N)(=O)=O)c1nc2cc(-c3ccc(F)nc3)ccc2s1` (centres unmarked) [Example B308, 2-[5-(6-fluoropyridin-3-yl)-1,3-benzothiazol-2-yl]-2-(2-methoxyethane-sulfonyl)-N-(2-sulfamoylethyl)acetamide], the pIC50 against Endothelial lipase (EL) was 8.89; against hepatic lipase (HL) it was 6.71.
The corresponding values for `CCS(=O)(=O)C(C(=O)NCCS(N)(=O)=O)c1nc2ccc(-c3ccccc3)cc2s1` (centres unmarked) [Example B105, 2-(ethylsulfonyl)-2-(6-phenyl-1,3-benzothiazol-2-yl)-N-(2-sulfamoylethyl)a-cetamide] are greater than 8.00 and greater than 8.00.
The corresponding values for `CN(C)C(=O)c1cccc(-c2ccc3nc(C(C(=O)NCCS(N)(=O)=O)S(=O)(=O)CCC(F)(F)F)sc3c2)c1` (centres unmarked) [Example B340, N,N-dimethyl-3-(2-{[(2-sulfamoylethyl)carba-moyl](3,3,3-trifluoropro-panesulfonyl)methyl}-1,3-benzothiazol-6-yl)benzamide] are 7.84 and 7.10.
For the compound `CS(=O)(=O)C(C(=O)NCCS(N)(=O)=O)c1nc2ccc(-c3cccc(F)c3)cc2s1` (centres unmarked) [Example B37, 2-(6-(3-fluorophenyl)-1,3-benzothiazol-2-yl)-2-(methylsulfonyl)-N-(2-sulfamoylethyl)acetamide], the negative-log IC50 (pIC50) on Endothelial lipase (EL) and against hepatic lipase (HL) was greater than 8.00 in each case.
Take `COCCNC(=O)c1ccc(-c2ccc3nc(C(C(=O)NCCS(N)(=O)=O)S(C)(=O)=O)sc3c2)cc1` (centres unmarked) [Example B35, N-(2-methoxyethyl)-4-(2-{1-(methylsulfonyl)-2-oxo-2-[(2-sulfamoylethyl)a-mino]ethyl}-1,3-benzothiazol-6-yl)ben-zamide]: the negative-log IC50 (pIC50) was greater than 8.00 at Endothelial lipase (EL) and 7.37 on hepatic lipase (HL).
On the same counts, the results for `Cc1nnc(CNC(=O)C(c2nc3cc(C)c(-c4ccc5c(c4)CCC(=O)N5)cc3s2)S(C)(=O)=O)o1` (centres unmarked) [Example B85, N-((5-methyl-1,3,4-oxadiazol-2-yl)methyl)-2-(5-methyl-6-(2-oxo-1,2,3,4-tetrahydro-6-quinolinyl)-1,3-benzothiazol-2-yl)-2-(methylsulfonyl)acetamide] are 7.96 and 6.91.
Regarding `NS(=O)(=O)CCNC(=O)C(c1nc2ccc(-c3ccnc(F)c3)cc2s1)S(=O)(=O)CCC(F)(F)F` (centres unmarked) [Example B72, 2-(6-(2-fluoro-4-pyridinyl)-1,3-benzothiazol-2-yl)-N-(2-sulfamoylethyl)-2-((3,3,3-trifluoropropyl)sulfonyl)a-cetamide], the pIC50 against Endothelial lipase (EL) was greater than 8.00; at hepatic lipase (HL) it was 7.17.
On the same counts, the results for `CC(=O)Nc1ccc(-c2ccc3nc(C(C(=O)NCCS(N)(=O)=O)S(=O)(=O)CCC(F)(F)F)sc3c2)cc1` (centres unmarked) [Example B236, 2-[6-(4-acetamidophenyl)-1,3-benzothiazol-2-yl]-N-(2-sulfamoylethyl)-2-(3,3,3-trifluoropropane-sulfonyl)acetamide] are 9.10 and 7.26.
On the same counts, the results for `COCCNC(=O)c1ccc(-c2ccc3nc(C(C(=O)NCCS(N)(=O)=O)S(=O)(=O)Cc4ccc(OC(F)(F)F)cc4)sc3c2)cc1` (centres unmarked) [Example B113, N-(2-methoxyethyl)-4-(2-(2-oxo-2-((2-sulfamoyl-ethyl)amino)-1-((4-(trifluoromethoxy)ben-zyl)sulfonyl)ethyl)-1,3-benzothiazol-6-yl)ben-zamide] are 9.15 and 7.32.
On the same counts, the results for `NS(=O)(=O)CCNC(=O)C(c1nc2ccc(-c3cccc(C(=O)N4CCCC(F)(F)C4)c3)cc2s1)S(=O)(=O)CCC(F)(F)F` (centres unmarked) [Example B335, 2-{6-[3-(3,3-difluoro-piperidine-1-carbonyl)phen-yl]-1,3-benzothiazol-2-yl}-N-(2-sulfamoyl-ethyl)-2-(3,3,3-trifluoro-propanesulfonyl)acetamide] are 8.26 and 7.83.

For orientation: pIC50 means the negative decadic logarithm of the IC50, by convention in mol/L. Read a low pIC50 as a large IC50.
